Experimental data: paper PMC8919389, “Discovery of TAK-925 as a Potent, Selective, and Brain-Penetrant Orexin 2 Receptor Agonist” (ACS Medicinal Chemistry Letters, 2022)
Read-outs that look alike come from different tables or passages of the source.

Assays:
[1] = target: T1, human OX1R (Homo sapiens, UniProt O43613); assay: Calcium flux assay, OX1R agonistic activity; type: cell-based; conditions: CHO cells expressing human OX1R, 95% confidence intervals in brackets, duplicate measurements
T1 construct: expressed in transfected cells; host or cells: CHO-K1
T1 sequence (O43613 1-425): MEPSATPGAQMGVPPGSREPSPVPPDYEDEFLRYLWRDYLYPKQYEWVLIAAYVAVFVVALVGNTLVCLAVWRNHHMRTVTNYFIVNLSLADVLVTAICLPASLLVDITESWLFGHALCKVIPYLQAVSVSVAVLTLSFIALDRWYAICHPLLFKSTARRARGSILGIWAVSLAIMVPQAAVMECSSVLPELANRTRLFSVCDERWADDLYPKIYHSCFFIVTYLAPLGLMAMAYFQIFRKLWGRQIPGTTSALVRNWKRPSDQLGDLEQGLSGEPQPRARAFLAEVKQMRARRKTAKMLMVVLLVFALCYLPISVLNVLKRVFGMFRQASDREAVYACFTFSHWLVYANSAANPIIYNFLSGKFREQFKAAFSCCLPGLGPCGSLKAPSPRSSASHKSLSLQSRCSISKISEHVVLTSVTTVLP
Experimental: Calcium flux assay (in vitro agonistic activity of OX2R and OX1R)1 hOX1R/CHO -K1 cells and hOX2R/CHO-K1 cells suspended in Ham's F-12 medium (Fujifilm Wako Pure Chemical Co.) supplemented with 100 U/mL penicillin-streptomycin and 10% FBS […]
cells/well and in black-walled clear -bottomed 96-well plates (Corning) at 45000 cells/well, respectively. The plated cells were grown overnight at 37 °C in the presence of 5% CO2. The following day, the medium was removed, and the cells were incubated with assay buffer ( H BS S with 20mM HEPES, pH 7.4, and 0.1% fatty acid free BSA) containing 2.5 μg/mL Fluo- 4 AM […]
Laboratories), and 0.08% Pluronic F127 (Dojindo Laboratories) for 30 min at 37 °C in the presence of 5% CO2. After incubation, the cells were stimulated with test compounds in the assay buffer. Calcium mobilization was measured using an FDSS/μCELL (Hamamatsu Photonics […]
r epr esent the 0% and 100% responses, respectively.

[2] = target: multidrug resistance protein 1 (MDR-1) (Homo sapiens, UniProt P08183); assay: Transcellular transport study using human MDR1-expressing LLC-PK1 cells; conditions: for MDR-1 ratio (directional transport ratio B to A/A to B): 10 μM test compound, 2 h
Experimental: Transcellular transport study using a t ransporter- exp ressi on syst em
Human MDR1-expressing LLC -PK1 cells were cultured as reported previously with minor
modifications. 2 T he transcellular transport study was performed as reported previously.2 In brief,
the cells were grown for 7 days in an HTS Transwell 96 -well permeable support (pore size, 0.4
μm; sur f ace ar ea, 0. 143 cm2) with a polyethylene ter ephthalate membr ane ( Cor ning Lif e Sciences,
T he cells wer e pr eincubated with M199
at 37 °C for 30 min. Subsequently, transcellular transport was initiated by the addition of M199
either to apical compartments (75 μ L) or to the basolateral compartments (250 μ L) containing 10
μM digoxin, 200 μM lucifer yellow as a marker for the monolayer tightness, and 10 μM test
compounds and then terminated by the removal of each assay plate after 2 h. The aliquots (25
μL) in the opposite compartments were mixed with acetonitrile containing alprenolol an d
diclofenac as an internal standard and then centrifuged. The compound concentrations in the
supernatant were measured by LC− MS/MS. The apparent permeability (Pap p ) of test compounds
in the receiver wells was deter mined, and the efflux ratio for the MDR1 membrane permeability
test was calculated using the following equation:
Efflux ratio = Papp,BtoA/Papp,AtoB
wher e Papp,AtoB is the apical-to-ba sal passive permeability−sur f ace ar ea pr oduct and P app,BtoA is the
basal-to -apical pas sive per meability−sur f ace ar ea pr oduct.

[3] = target: T2, human OX2R (Homo sapiens, UniProt O43614); assay: Calcium flux assay, OX2R agonistic activity
T2 sequence (O43614 1-444): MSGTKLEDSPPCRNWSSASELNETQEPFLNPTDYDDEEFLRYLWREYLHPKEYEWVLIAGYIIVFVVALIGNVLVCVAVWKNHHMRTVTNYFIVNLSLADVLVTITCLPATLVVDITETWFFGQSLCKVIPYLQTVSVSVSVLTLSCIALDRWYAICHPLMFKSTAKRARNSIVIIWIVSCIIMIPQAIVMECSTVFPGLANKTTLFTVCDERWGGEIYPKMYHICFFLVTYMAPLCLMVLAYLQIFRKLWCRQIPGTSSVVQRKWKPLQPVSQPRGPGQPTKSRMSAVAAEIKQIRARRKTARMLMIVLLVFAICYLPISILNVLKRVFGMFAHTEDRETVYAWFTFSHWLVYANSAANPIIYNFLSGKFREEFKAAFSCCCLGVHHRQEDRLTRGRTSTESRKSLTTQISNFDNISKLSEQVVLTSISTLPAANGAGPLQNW

[4] = tested on: ICR mice; assay: Wakefulness time in ICR mice during the sleep phase (EEG/EMG); type: in vivo; conditions: sleep phase (ZT5), 3 mg/kg subcutaneous, n = 8, P < 0.001 vs vehicle
Experimental: It has been reported that activation of the orexin system by intracerebroventricular injection of OX-A increases wakefulness in rodents.[20],[21] In this study, we assessed the effect of compound 16 on wakefulness time in ICR mice during the sleep phase based on the measurements of electroencephalogram and electromyogram.
Figure 5 Effect of compound 16 on wakefulness time in ICR mice during the sleep phase. Compound 16 at 3 mg/kg or vehicle was administered subcutaneously to ICR mice at zeitgeber time 5, and electroencephalograms and electromyograms were recorded. Analysis was performed with data collected during 3 h after drug administration. Data were presented as the mean + standard error of the mean (n = 8). ***P < 0.001, compared with the vehicle-treated mice (two-tailed paired t test).
Evaluation of wakefulness time m easu rem ent of compound 16 in m ice
I CR mice were obtained from CLEA Japan Inc. (Tokyo, Japan). M ice were housed in groups of 4 per cage in a light controlled room (12 h light/dark cycle with lights on at 07:00 h). Food and tap water were provided ad libitum . […] 1 Compound 16 at 3 mg/kg suspended in 0.5% methylcellulose saline was administered subcutaneously to mice at zeitgeber time 5 (ZT5) in a volume of 10 mL/kg body weight, and then EE G was recorded. […] The statistical significance between two groups was determined by paired t-test with significance set at P < 0.05. […]

[5] = Brain and plasma concentration after intraperitoneal administration in mice; type: in vivo, C57BL/6J mice; conditions: 10 mg/kg ip; for concentration at 0.5 h / concentration at 1 h: n = 3
Experimental: Brain and plasma concentration of compound 16 was measured after intraperitoneal administration at 10 mg/kg in mice (Table 5).
Measurem ent of plasm a and brain concent rat ion of compound 16 in mice The aliquots of the brain homogenate were mixed with acetonitrile containing internal standard.
The mixtures were centrifuged. The supernatants were diluted with solvents for LC-MS / MS (mobile phase A: 10 mM ammonium formate/formic acid (100/0.2, v/v), mobile phase B: acetonitrile/formic acid (100/0.2, v/v)). The diluted solutions were injected into LC-MS / MS (API5000, AB Sciex, CA) equipped with Shimadzu Shim-pack XR-ODS (2.2 μm, 2.0 × 30 mm, Shimadzu Corporation, Japan) at 50 °C. Analyst sof twar e T M ( ver sio n 1.4.2) was used for data acquisition and processing.
Ethics Statement. The care and use of the animals and the experimental protocols used in this research were approved by the Experimental Animal Care and Use Committee of Takeda Phar maceutical Company Limited.

[6] = read-out: OX2R agonistic activity EC50, CHO cells expressing human OX2R, calcium flux, 95% confidence intervals in brackets, duplicate measurements

Row | Compound | EC50 [1] [µM] | MDR-1 ratio (directional transport ratio B to A/A to B) [2] | EC50 [3, 6] [µM] | also measured
1 | CCNC(=O)N1CCC[C@H](NS(C)(=O)=O)[C@@H]1CO[C@H]1CC[C@@H](c2ccccc2)CC1 [compound 18] | 14 | 4.8 |  | 
2 | CCS(=O)(=O)N[C@@H]1CCCN(C(C)=O)[C@H]1CO[C@H]1CC[C@H](C(C)C)CC1 [compound 6] | > 100 |  | > 30 | 
3 | CCS(=O)(=O)NC1CCCN(C(C)=O)C1COC1CCC(C(C)C)CC1 (stereo not drawn) [compound 2] | > 100 |  | 0.57 | Emax ([3]; read-out: maximum response [Emax], OX2R agonism): 94%
4 | CCOC(=O)N1CCC[C@H](NS(C)(=O)=O)[C@@H]1CO[C@H]1CC[C@@H](c2ccccc2)CC1 [compound 17] | > 100 | 0.7 | 0.027 | 
5 | CC(=O)N1CCC[C@H](NS(C)(=O)=O)[C@@H]1CO[C@H]1CC[C@@H](C(C)C)CC1 [compound 7] | > 100 |  | 0.33 | 
6 | CC(=O)N1CCC[C@H](NS(=O)(=O)C(C)C)[C@@H]1CO[C@H]1CC[C@@H](C(C)C)CC1 [compound 8] | > 100 |  | 0.94 | 
7 | CC(=O)N1CCC[C@H](NS(C)(=O)=O)[C@@H]1CO[C@H]1CC[C@@H](C)CC1 (relative stereo) [compound 12] | > 100 |  |  | EC50 [3]: 3.7 µM
8 | CCS(=O)(=O)N[C@@H]1CCCN(C(C)=O)[C@H]1CO[C@H]1CC[C@@H](C(C)C)CC1 [compound 4] | > 100 |  | > 30 | 
9 | CCS(=O)(=O)N[C@H]1CCCN(C(C)=O)[C@H]1CO[C@H]1CC[C@@H](C(C)C)CC1 [compound 3] | > 100 |  | 0.27 | 
10 | CCS(=O)(=O)N[C@H]1CCCN(C(C)=O)[C@H]1CO[C@H]1CC[C@H](C(C)C)CC1 [compound 5] | > 100 |  | > 30 | 
11 | CS(=O)(=O)N[C@H]1CCCN[C@H]1CO[C@H]1CC[C@@H](c2ccccc2)CC1 [compound 14] | > 100 | 0.8 |  | 
12 | CCC(=O)N1CCC[C@H](NS(C)(=O)=O)[C@@H]1CO[C@H]1CC[C@@H](c2ccccc2)CC1 [compound 15] | > 100 | 2.2 | 0.011 | 
13 | CCCS(=O)(=O)N[C@H]1CCCN(C(C)=O)[C@H]1CO[C@H]1CC[C@@H](C(C)C)CC1 [compound 9] | > 100 |  | 2.5 | 
14 | CC(=O)N1CCC[C@H](N(C)S(C)(=O)=O)[C@@H]1CO[C@H]1CC[C@@H](C(C)C)CC1 [compound 10] | > 100 |  | > 30 | 
15 | CC(=O)N[C@H]1CCCN(C(C)=O)[C@H]1CO[C@H]1CC[C@@H](C(C)C)CC1 (stereo in doubt) [compound 11] | > 100 |  |  | EC50 [3]: > 30 µM
16 | COC(=O)N1CCC[C@H](NS(C)(=O)=O)[C@@H]1CO[C@H]1CC[C@@H](c2ccccc2)CC1 [compound 16, methyl (2R,3S)-3-((methylsulfonyl)amino)-2-(((cis-4-phenylcyclohexyl)oxy)methyl)piperidine-1-carboxylate] | > 100 | 0.8 | 0.0055 | total wakefulness time during 3 h after administration [4]: significantly increased; half-life in mice ([5]; mice): short half-life; Kp at 0.5 h ([5]; mouse, brain/plasma, C57BL/6J mice, 0.5 h, read-out: brain-to-plasma concn ratio): 0.2; Kp at 1 h ([5]; mouse, brain/plasma, C57BL/6J mice, 1 h, read-out: brain-to-plasma concn ratio): 0.2; concentration at 0.5 h ([5]; mouse, brain, C57BL/6J mice, 0.5 h, read-out: brain concn): 183 ng/g; concentration at 1 h ([5]; mouse, brain, C57BL/6J mice, 1 h, read-out: brain concn): 63 ng/g; concentration at 0.5 h ([5]; mouse, plasma, C57BL/6J mice, 0.5 h, read-out: plasma concn): 880 ng/mL; concentration at 1 h ([5]; mouse, plasma, C57BL/6J mice, 1 h, read-out: plasma concn): 288 ng/mL; MDR-1 transport A to B ([2]; apical to basal): 169
